{"source": "patent US6348570B1", "about": "“Chromophore containing compounds and their use in determining interleukin-1β convertase activity” (Merck & Co., Inc., priority 1991, dated 2002)", "key": {"[1]": {"target": "T1, Interleukin-1β convertase (ICE), DEAE-purified THP-1 cell lysate (Homo sapiens, UniProt P29466)", "T1 sequence (P29466 120-297 limits assumed)": "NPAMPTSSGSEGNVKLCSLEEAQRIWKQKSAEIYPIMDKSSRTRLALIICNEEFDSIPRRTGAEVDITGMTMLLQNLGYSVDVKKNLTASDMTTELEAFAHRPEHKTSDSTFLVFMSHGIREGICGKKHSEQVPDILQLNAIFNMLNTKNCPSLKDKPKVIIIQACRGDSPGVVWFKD", "T1 sequence (P29466 317-404 limits assumed)": "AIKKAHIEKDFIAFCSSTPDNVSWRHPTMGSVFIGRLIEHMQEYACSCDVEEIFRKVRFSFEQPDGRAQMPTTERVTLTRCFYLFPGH", "type": "biochemical", "set-up": "Activity of DEAE-purified THP-1 cell lysate; endogenous in cells; host or cells: THP-1 cells; cytosolic extract fractionated on a DEAE-5PW HPLC column", "conditions": "pH 7.5", "experimental": "[table] At 25° C., 5 μl of substrate 5 μl of enzyme and 5 μl of sample were added to 485 μl of Buffer as defined above. Liberation of AMC was monitored using a Gilford Fluoro IV Spectrofluorometer using an excitation wavelength of 380 nm and an emmission wavelength of 460 nm. 1 μM AMC=100% relative fluorescence."}, "[2]": {"target": "T1, Interleukin-1β convertase (ICE), DEAE-purified THP-1 cell lysate", "assay": "Coupled fluorometric ICE assay with leucine aminopeptidase (LAPM)", "type": "biochemical", "set-up": "Activity of DEAE-purified THP-1 cell lysate; endogenous in cells; host or cells: THP-1 cells; cytosolic extract fractionated on a DEAE-5PW HPLC column", "conditions": "25° C.", "experimental": "Coupled Assay: Interleukin 1β activity of Activity of DEAE-purified THP-1 cell lysate.\nAt 25° C., 5 μl of substrate 5 μl of LAPM, 5 μl of ICE were added to […] of buffer.\nReaction is monitored continuously in a Gilford Fluoro-IV Spectrofluorometer. excitation wavelength=380 nm emission wavelength=460 nm 1 uM AMC=100% relative fluoroescence"}, "[3]": {"target": "T2, Interleukin-1β convertase (ICE) (UniProt P29466 120-297; P29466 317-404, limits assumed)", "T2 sequence (looked up) 1": "T1 sequence (P29466 120-297 limits assumed)", "T2 sequence (looked up) 2": "T1 sequence (P29466 317-404 limits assumed)", "assay": "cell-based or functional assay"}}, "note": "Starred links: 1 amine or outer side, 2 acyl side, 3 side chain; linkers in the order of their positions; H or OH if unused. Non-standard residues stand in square brackets, D forms with d. Residues, ends and D or L forms follow the SMILES beside them. No end group written: not given here. *: point of attachment. 3‑amino‑4‑oxobutanoic acid = aspartic acid with its alpha-carboxyl as an aldehyde, O=C[C@H](CC(=O)[*:3])N[*:1]; AMC = Cc1cc(=O)oc2cc(N*)ccc12"}
{"molecule": "CC(=O)N[C@@H](Cc1ccc(O)cc1)C(=O)N[C@H](C(=O)N[C@@H](C)C(=O)NC(C=O)CC(=O)O)C(C)C", "note": "(stereo partly drawn) [Compound Z, N-(N-acetyl-tyrosinyl-valinyl-alaninyl)-3-amino-4-oxo butanoic acid]", "values": [{"measurement": "rate constant for inhibition", "setting": "[1]; 5 μl of 2 μM sample in 500 μl, 25° C.", "result": 0.25, "unit": "min⁻¹"}, {"measurement": "half-life for the slow onset of inhibition", "setting": "[1]", "result": 2.7, "unit": "min"}, {"measurement": "type of inhibition", "setting": "[1]; substrate Ac-Tyr-Val-Ala-Asp-AMC, 25° C.", "result": "slow, tight-binding inhibitor"}]}
{"molecule": "CC(=O)N[C@@H](Cc1ccc(O)cc1)C(=O)N[C@H](C(=O)N[C@@H](C)C(=O)N[C@@H](CC(=O)O)C(=O)NCC(=O)Nc1ccc2c(C)cc(=O)oc2c1)C(C)C", "note": "[Ac-Tyr-Val-Ala-Asp-Gly-AMC, N-(N-Acetyl-tyrosinyl-valinyl-alaninyl-aspartyl-glycinyl)-7-amino-4-methylcoumarin] (Ac-YVADG-{AMC})", "values": [{"measurement": "velocity of the steady state reaction", "setting": "[2]; 5 μl substrate, 5 μl LAPM, 5 μl ICE, pH 7.5", "result": 0.05, "unit": "uM AMC/min"}, {"measurement": "rate constant that describes the approach to steady state (lag phase)", "setting": "[2]; determined by amount of coupling enzyme LAPM (5 μl of 12.5 units/ml)", "result": "0.44 ± 0.01", "unit": "min⁻¹"}]}
{"molecule": "Ac-YVA[3‑amino‑4‑oxobutanoic acid]", "note": "[compound Z (i.e. N-(N-acetyl-tyrosinyl-valinyl-alaninyl)-3-amino-4-oxo butanoic acid)]", "values": [{"measurement": "half-life for the slow onset of inhibition", "setting": "[3]", "result": 2.7, "unit": "min"}]}
